Data as given in patent US9939427B2, “Method for evaluating the scent performance of perfumes or perfume mixtures” (Symrise AG, priority 2013, dated 2018).

What was measured:
Type in all cases: cell-based
OR52B4 = target: T1, OR52B4 (Homo sapiens, UniProt Q8NGK2); assay: Ca-imaging of OR52B4-transfected HEK293 cells; design: key: ▪: 18 olfactory receptors responded to 32 odorants in related with specific anosmia; details: individual odorant 200 μM, significant response p<0.05
T1 construct: specific primers, which amplify the complete open reading frame; expressed in transfected cells; host or cells: HEK293
T1 sequence (Q8NGK2 1-314): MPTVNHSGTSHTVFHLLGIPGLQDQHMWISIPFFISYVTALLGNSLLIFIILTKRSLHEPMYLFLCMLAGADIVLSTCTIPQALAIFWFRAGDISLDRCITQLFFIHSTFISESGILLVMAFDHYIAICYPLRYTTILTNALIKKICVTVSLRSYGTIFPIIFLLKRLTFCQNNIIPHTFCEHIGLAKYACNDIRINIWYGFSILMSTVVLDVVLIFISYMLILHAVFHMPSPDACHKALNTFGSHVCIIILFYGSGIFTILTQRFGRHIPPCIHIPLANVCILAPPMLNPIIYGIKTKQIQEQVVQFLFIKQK
Procedure: (§1) HEK293 cells were cultivated in Petri dishes (Ø35 mm) as previously described (Benbernou et al. 2007). We grow up HEK293 cells in culture medium containing standard DMEM with 10% heat-inactivated fetal bovine serum, 2 mM L-glutamine, 100 units/ml penicillin, and 100 units/ml streptomycin in a humidified atmosphere (37° C., 5% CO2). After 2-3 days, the transfection process was carried out, whereby the cell culture was 70-80% confluent. The calciumphosphate method was applied to transfect DNA plasmid transiently in HEK293 cells in case of Ca-imaging method.
(§2) Calcium cations and phosphate anions created crystal precipitations coupled with DNA which could invade into the cells through endocytosis. Cells were transiently transfected with plasmid DNA which consists of pCI expression vector and PCR-amplified full-length cDNA of olfactory receptors candidates, and also Gα15, RTP1, Myr-Ric8A, HSC70, and m-Cherry as cofactors. The precipitation could be created after 15-20 min, with dropping the transfection solution on HEK293 cells. Before measuring by Ca-imaging cells were incubated 48-60 hours at 370 C, 5% CO2. Cationic liposome-mediated transfection method was applied to transfect DNA plasmid transiently in HANA3A cells in case of CRE-Luciferase and CRE-SEAP assays.
(§3) Calcium imaging of the transfected HEK293 cells was done by using chambers determinate an inverted microscope (Olympus; IX70) using a 10× objective (CPIanFL N Olympus). Fluorescence emission was determined every 4 s by using a CCD camera (Charge Coupled Device, C9100 Hamamatsu). The capillary tube which was responsible to supply odorants was generated closely above the cells. The columns filled with odorants, DMSO and ATP. Odorants were manually monitored to drop each 4-5 s to transfected cells. Solutions with drop wise form spread on HEK293 cells in 35 mm dishes.
In experiments, Fura-2 Acetoxymethylester (Fura-2/AM) was applied. The non-polar Fura2/AM is fluorescent but not yet calcium-sensitive. Once diffuses into cell plasma, Fura-2/AM is hydrolyzed to Fura-2 which is calcium-sensitive and functions as Ca2+ chelator. Regardless of the presence of calcium, Fura-2 emits at the wavelength of 510 nm. […] According to this feature, the analysis of 340/380 nm excitation ratio for Fura-2 allows to quantify intracellular calcium levels. […]
(§4) Ringer's solution was used for washing cells between measuring by two different odorants. Positive response was determined by the timing of the response, the strength of the response (more than twofold higher than the noise amplitude of the baseline), and the shape of the response curve (sharp rise in curve with gradual recovery). […]

OR4E2 = target: T2, OR4E2 (Homo sapiens, UniProt Q8NGC2); assay: Ca-imaging of OR4E2-transfected HEK293 cells; design: key: ▪: 18 olfactory receptors responded to 32 odorants in related with specific anosmia; details: individual odorant 200 μM, significant response p<0.05
T2 construct: specific primers, which amplify the complete open reading frame; expressed in transfected cells; host or cells: HEK293
T2 sequence (Q8NGC2 1-313): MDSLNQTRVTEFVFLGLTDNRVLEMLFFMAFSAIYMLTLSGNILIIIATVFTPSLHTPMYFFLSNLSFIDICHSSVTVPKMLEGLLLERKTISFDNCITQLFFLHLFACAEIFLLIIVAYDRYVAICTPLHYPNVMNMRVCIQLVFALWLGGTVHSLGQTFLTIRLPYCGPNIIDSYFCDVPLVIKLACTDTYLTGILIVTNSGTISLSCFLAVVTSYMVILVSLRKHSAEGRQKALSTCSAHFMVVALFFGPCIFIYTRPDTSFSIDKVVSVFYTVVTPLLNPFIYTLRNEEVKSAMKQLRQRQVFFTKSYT
Procedure: as §1
as §2, with “Cationic liposome-mediated transfection method was applied to transfect DNA plasmid transiently in HANA3A cells in case of CRE-Luciferase and CRE-SEAP assays.” left out
(§5) Calcium imaging of the transfected HEK293 cells was done by using chambers determinate an inverted microscope (Olympus; IX70) using a 10× objective (CPIanFL N Olympus). Fluorescence emission was determined every 4 s by using a CCD camera (Charge Coupled Device, C9100 Hamamatsu). […] Odorants were manually monitored to drop each 4-5 s to transfected cells. […]
(§6) In experiments, Fura-2 Acetoxymethylester (Fura-2/AM) was applied. […] According to this feature, the analysis of 340/380 nm excitation ratio for Fura-2 allows to quantify intracellular calcium levels. […]
as §4

OR4P4 = target: T3, OR4P4 (Homo sapiens, UniProt Q8NGL7); assay: Ca-imaging of OR4P4-transfected HEK293 cells; design: key to OR4P4 responded to odorant: ▪: 18 olfactory receptors responded to 32 odorants in related with specific anosmia
T3 construct: specific primers, which amplify the complete open reading frame; expressed in transfected cells; host or cells: HEK293
T3 sequence (Q8NGL7 1-312): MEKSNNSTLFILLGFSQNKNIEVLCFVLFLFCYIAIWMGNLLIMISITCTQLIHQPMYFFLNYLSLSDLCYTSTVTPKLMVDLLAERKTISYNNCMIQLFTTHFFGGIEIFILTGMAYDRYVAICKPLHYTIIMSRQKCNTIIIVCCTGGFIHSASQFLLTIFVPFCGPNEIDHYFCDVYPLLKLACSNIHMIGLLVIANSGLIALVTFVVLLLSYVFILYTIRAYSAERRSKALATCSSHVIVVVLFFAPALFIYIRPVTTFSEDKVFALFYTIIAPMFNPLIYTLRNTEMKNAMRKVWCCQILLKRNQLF
Procedure: as §1
as §2, with “Cationic liposome-mediated transfection method was applied to transfect DNA plasmid transiently in HANA3A cells in case of CRE-Luciferase and CRE-SEAP assays.” left out
as §5, §6, §4

OR4K2 = target: T4, OR4K2 (Homo sapiens, UniProt Q8NGD2); assay: Ca-imaging of OR4K2-transfected HEK293 cells; design: key to OR4K2 responded to odorant: ▪: 18 olfactory receptors responded to 32 odorants in related with specific anosmia; details: HEK293 cells, individual odorant 200 μM, significant response p<0.05
T4 construct: specific primers, which amplify the complete open reading frame; expressed in transfected cells; host or cells: HEK293
T4 sequence (Q8NGD2 1-314): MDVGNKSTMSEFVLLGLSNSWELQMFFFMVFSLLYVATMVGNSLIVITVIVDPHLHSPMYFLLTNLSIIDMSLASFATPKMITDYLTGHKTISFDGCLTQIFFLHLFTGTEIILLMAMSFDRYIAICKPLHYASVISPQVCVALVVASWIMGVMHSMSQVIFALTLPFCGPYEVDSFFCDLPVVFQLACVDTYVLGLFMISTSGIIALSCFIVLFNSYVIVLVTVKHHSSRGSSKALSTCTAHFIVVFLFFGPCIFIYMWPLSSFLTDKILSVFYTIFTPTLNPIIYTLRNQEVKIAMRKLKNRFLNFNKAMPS
Procedure: as §1, §2, §3
In experiments, Fura-2 Acetoxymethylester (Fura-2/AM) was applied. The non-polar Fura2/AM is fluorescent but not yet calcium-sensitive. Once diffuses into cell plasma, Fura-2/AM is hydrolyzed to Fura-2 which is calcium-sensitive and functions as Ca2+ chelator. Regardless of the presence of calcium, Fura-2 emits at the wavelength of 510 nm. Once Fura-2 binds to free intracellular Ca2+ in cell plasma, its ratio of excitation at wavelengths of 340 nm and 380 nm is changed and correlated to the amount of intracellular Ca2+. According to this feature, the analysis of 340/380 nm excitation ratio for Fura-2 allows to quantify intracellular calcium levels.
In preparation for Ca-imaging measurements, transfected HEK293 cells were added 3 it Fura2/AM (3 μM) and incubated 30-45 min at 370 C, 5% CO2. After this step, experiments were carried out in a dark condition (Fura-2 is light-sensitive). After the incubation, medium of cell culture was replaced with 2 ml Ringer's solution.
Odorants were freshly prepared with DMSO as 1 M stocks solutions. Six mixtures (200 μM each chemical) were applied to cells sequentially (20 s each mixture/30 s Ringer). Those ORs tested with single odorants that had generated a response to odorant mixture group previously. Odorants were prepared in 100-200 μM concentration.
as §4

OR12D2 = target: T5, OR12D2 (Homo sapiens, UniProt P58182); assay: Ca-imaging of OR12D2-transfected HEK293 cells; design: key: ▪: 18 olfactory receptors responded to 32 odorants in related with specific anosmia; details: individual odorant 200 μM, significant response p<0.05
T5 construct: specific primers, which amplify the complete open reading frame; expressed in transfected cells; host or cells: HEK293
T5 sequence (P58182 1-307): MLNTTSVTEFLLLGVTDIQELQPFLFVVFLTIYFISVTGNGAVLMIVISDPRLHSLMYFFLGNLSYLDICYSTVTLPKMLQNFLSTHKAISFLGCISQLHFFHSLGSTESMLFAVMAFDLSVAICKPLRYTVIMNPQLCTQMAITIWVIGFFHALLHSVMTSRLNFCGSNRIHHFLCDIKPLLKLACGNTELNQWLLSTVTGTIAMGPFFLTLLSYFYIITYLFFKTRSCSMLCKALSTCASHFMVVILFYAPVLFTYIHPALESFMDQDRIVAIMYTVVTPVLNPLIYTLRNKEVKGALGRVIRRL
Procedure: In preparation for Ca-imaging measurements, transfected HEK293 cells were added 3 it Fura2/AM (3 μM) and incubated 30-45 min at 370 C, 5% CO2. After this step, experiments were carried out in a dark condition (Fura-2 is light-sensitive). […]

In the case of `COc1c(Cl)cc(Cl)cc1Cl` [2-4-6 trichoroanisole, 2-4-6-Trichloroanisole], the “OR52B4 responded to odorant” value (OR52B4) was “▪” and the “OR4E2 responded to odorant” value (OR4E2) was “▪”.

Globalide was tested, and the “OR4P4 responded to odorant” value (OR4P4; HEK293 cells, individual odorant 200 μM, significant response p<0.05) was “▪” and the “Response of OR4P4 to odorant, in words” value (OR4P4; single odorants 200 μM) was “responded”.

In the case of `O=Cc1ccccc1` [Banzaldehyde, Benzaldehyde], the “OR4K2 responded to odorant” value (OR4K2) was “▪”.

`CC/C(=C\CC1CC=C(C)C1(C)C)CO` (stereo not shown) [Sandranol] was tested, and the “OR52B4 responded to odorant” value (OR52B4) was “▪”.

In the case of `CC1CCCC2(C)CCCCC12O` (stereo not shown) [Geosmin], the “OR52B4 responded to odorant” value (OR52B4) was “▪”.

With `O=CCCc1ccccc1` [3-phenyl propyl aldehyde, 3-Phenylpropionaldehyde] the “OR4E2 responded to odorant” value (OR4E2) was “▪” and the “OR4K2 responded to odorant” value (OR4K2) was “▪”.

In the case of `CC(=O)O` [Acetic acid], the “OR12D2 responded to odorant” value (OR12D2) was “▪”.
